How the values were obtained:
[1] = target: T1, P450RAI-3 (Homo sapiens, UniProt Q6V0L0, F447L); assay: ATRA / 9-cis-RA metabolism in pcDNA-P450RAI-3 transfected Cos-1 cells (Bligh-Dyer, HPLC); assay type: cell-based; parameters: expressed in transfected cells; host or cells: COS-1 (transient, pcDNA-P450RAI-3, Fugene); conditions: 2 nM radio-labeled substrate, 3 hours
T1 sequence (Q6V0L0 1-522 F447L): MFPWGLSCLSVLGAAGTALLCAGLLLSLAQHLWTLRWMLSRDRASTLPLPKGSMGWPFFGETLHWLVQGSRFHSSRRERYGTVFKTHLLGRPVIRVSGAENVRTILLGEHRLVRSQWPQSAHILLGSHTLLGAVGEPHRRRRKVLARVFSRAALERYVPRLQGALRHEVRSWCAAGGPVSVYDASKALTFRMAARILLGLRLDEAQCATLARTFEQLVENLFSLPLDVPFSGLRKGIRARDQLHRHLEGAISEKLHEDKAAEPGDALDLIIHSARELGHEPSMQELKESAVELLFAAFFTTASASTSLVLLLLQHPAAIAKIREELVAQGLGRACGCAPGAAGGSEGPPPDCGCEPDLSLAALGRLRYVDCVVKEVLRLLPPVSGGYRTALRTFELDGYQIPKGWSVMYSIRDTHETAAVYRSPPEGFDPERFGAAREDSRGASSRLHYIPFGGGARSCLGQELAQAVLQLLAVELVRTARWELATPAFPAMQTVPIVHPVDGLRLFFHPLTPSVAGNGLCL
Procedure: Mammalian Cos-1 cells were transfected with either pcDNA-P450RAI-3 or pcDNA-control vector using Fugene™ (Roche diagnostic) according to the manufacturers directions. After 48 hours post-tranfection, cells were washed with PBS and assessed for ATRA-metabolism activity as described Briefly, transfected cells were incubated with radio-labeled ^3[H]-ATRA (18000 cpm, 2 nM) for 3 hours. Organic and Water-soluble metabolites were extracted using Bligh-Dyer procedure and radioactivity counted (FIG. 10).
HPLC analysis of the organic metabolites: the Bligh-Dyer organic button-layer was dried out and residues were suspended in HPLC solvent and then analyzed by HPLC as described in [White et al, PNAS, vol 97, pg 6403-6408], FIG. 11.
Mammalian Cos-1 cells were transfected with either pcDNA-P450RAI-3 or pcDNA-control vector according to the manufacturers directions using Fugene (Roche). After 48 hours post-tranfection, cells were washed with PBS and assessed for 9-cis-RA-metabolism activity as described using Bligh-Dyer procedure. Briefly, transfected cells were incubated with radio-labeled ^3[H]-9-cis-RA (38000 cpm, 2 nM) for 3 hours. Organic and Water-soluble metabolites were extracted using Bligh-Dyer procedure and radioactivity counted, FIG. 19.

[2] = target: T1, P450RAI-3; assay: RA-metabolism cell based assay in P450RAI-3-infected Sf9 cells; parameters: expressed in transfected cells; conditions: 2 nM [3H]-RA
Procedure: (§1) Recombinant baculovirus expressing either P450RAI-3 or CYP26B (Bac-P450RAI-3 or Bac-CYP26B or CYP26B) was prepared and titrated by end-point dilution and infection of Sf9 cells in 96-well format. Baculovirus expressing vector was co-transfected into Sf9-insect cells. Infected cells were assessed for RA-metabolism after 72 hours post transfection using RA-metabolism cell based assay as follows: the RA-metabolism reaction was started by adding 50 μl of [^3H]-RA solution (20000 cpm, 2 nM final concentration) using an automatic repeating-pipette.
(§2) Cells were incubated for 3 hours. The reaction was stopped by adding 5 μl of 10% acetic acid. Organic and aqueous soluble radio-labelled metabolites were extracted using the Bligh-Dyer procedure.

[3] = target: T1, P450RAI-3; assay: [3H]-RA-metabolism inhibition (substrate competition) in P450RAI-3 stable transfected Hela cells; assay type: cell-based; parameters: expressed in transfected cells; conditions: 2 nM [3H]-RA, read-out: ID50, competition for P450RAI-3 [3H]-RA metabolism
Procedure: (§3) The purpose of these experiments is to determine the specific substrates for P450RAI-3. […] The RA metabolism reaction was started by the addition of 50 ul of [^3H]-RA solution (20000 cpm, 2 nM final concentration). Cells were incubated for 3 hours in a humidified CO2 incubator at 37 degrees Celsius. The reaction was stopped by the addition of 5 ul of 10% acetic acid. Organic and aqueous soluble radio-labelled metabolites were extracted using the Bligh-Dyer procedure.

[4] = target: T1, P450RAI-3; assay: [3H]-RA-metabolism inhibition, transient Cos-P450RAI-3 cell-based assay; parameters: expressed in transfected cells; host or cells: COS-1 (transient, pcDNA-P450RAI-3, Fugene); conditions: at lower concentrations
Procedure: as §3

[5] = target: T2, CYP26-B (Homo sapiens, UniProt Q9NR63); assay: RA-metabolism cell based assay in CYP26-B-infected Sf9 cells; conditions: 2 nM [3H]-RA
T2 sequence (Q9NR63 1-512): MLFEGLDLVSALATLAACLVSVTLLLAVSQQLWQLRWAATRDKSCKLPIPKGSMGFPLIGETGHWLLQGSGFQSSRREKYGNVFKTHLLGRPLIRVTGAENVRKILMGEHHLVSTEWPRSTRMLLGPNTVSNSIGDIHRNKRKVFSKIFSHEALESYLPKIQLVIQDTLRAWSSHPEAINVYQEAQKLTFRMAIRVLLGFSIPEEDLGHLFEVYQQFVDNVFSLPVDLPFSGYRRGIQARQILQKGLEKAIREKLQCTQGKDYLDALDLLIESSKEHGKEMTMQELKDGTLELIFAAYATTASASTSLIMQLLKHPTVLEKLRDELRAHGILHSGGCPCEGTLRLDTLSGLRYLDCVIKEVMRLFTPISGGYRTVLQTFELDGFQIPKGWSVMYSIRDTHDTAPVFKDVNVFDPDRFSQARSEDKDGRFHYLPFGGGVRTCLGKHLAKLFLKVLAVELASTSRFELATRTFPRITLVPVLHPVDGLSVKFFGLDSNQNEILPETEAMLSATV
Procedure: as §1, §2

[6] = target: T1, P450RAI-3; assay: ATRA and 9-cis-RA binding assay, Sf9-Bac-P450RAI-3 insect microsomes; conditions: Kd, substrate binding to P450RAI-3, insect microsomes; Table 4 prints no unit, nM
[7] = target: T2, CYP26-B; assay: [3H]-RA-metabolism inhibition, transient Cos-CYP26-B cell-based assay; conditions: at lower concentrations

CC1=C(/C=C/C(C)=C/C=C/C(C)=C/C(=O)O)C(C)(C)CCC1 [ATRA, all-trans-retinoic-acid]
metabolism by P450RAI-3 [1]: efficiently metabolize ATRA to polar metabolites
metabolism by P450RAI-3-infected Sf9-cells [2]: metabolized ATRA and converted it to water-soluble metabolites
IC50 [3]: 300 nM
competition / inhibition of P450RAI-3 [4]: competed
metabolism by CYP26-B-infected Sf9-cells [5]: metabolized ATRA and converted it to water-soluble metabolites
Kd [6]: 45 nM
competition / inhibition of CYP26-B [7]: competed
